Values quoted from earlier work in patent US20110319370A1, “Combination Hormone Therapy for the Eye” (DUQUESNE UNIVERSITY OF THE, priority 2010, published 2011).
≈ marks a conversion by molar mass, not a printed value.

Key:
[1] = system: newborn rats treated with buthionine sulfoximine (BSO); settings: cataracts develop by age 16 days, reduced from 100% without melatonin

solubility in aqueous media (aqueous media): 2.4 mg/mL (≈ 10.3 mM)
solubility in organic solvents (organic solvents): 140.5 mg/mL (≈ 605 mM)
Compound: COc1ccc2[nH]cc(CCNC(C)=O)c2c1 [Melatonin]
cataract incidence [1]: 6.2%
